Measured values taken from EP3478687B1 (Daewoong Pharmaceutical Co., Ltd., priority 2016, dated 2018).

How the values were obtained:
[1] = biological target: T1, Recombinant purified human JAK3 (Homo sapiens, UniProt P52333); assay: JAK3 kinase inhibitory activity, ADP-Glo kinase assay (Promega V9441); format: biochemical; conditions: ATP 5 uM, 4 ng JAK3 per reaction, 1 hour 30 °C, chemiluminescence
T1 construct: purchased Promega V9441
T1 sequence (P52333 1-1124): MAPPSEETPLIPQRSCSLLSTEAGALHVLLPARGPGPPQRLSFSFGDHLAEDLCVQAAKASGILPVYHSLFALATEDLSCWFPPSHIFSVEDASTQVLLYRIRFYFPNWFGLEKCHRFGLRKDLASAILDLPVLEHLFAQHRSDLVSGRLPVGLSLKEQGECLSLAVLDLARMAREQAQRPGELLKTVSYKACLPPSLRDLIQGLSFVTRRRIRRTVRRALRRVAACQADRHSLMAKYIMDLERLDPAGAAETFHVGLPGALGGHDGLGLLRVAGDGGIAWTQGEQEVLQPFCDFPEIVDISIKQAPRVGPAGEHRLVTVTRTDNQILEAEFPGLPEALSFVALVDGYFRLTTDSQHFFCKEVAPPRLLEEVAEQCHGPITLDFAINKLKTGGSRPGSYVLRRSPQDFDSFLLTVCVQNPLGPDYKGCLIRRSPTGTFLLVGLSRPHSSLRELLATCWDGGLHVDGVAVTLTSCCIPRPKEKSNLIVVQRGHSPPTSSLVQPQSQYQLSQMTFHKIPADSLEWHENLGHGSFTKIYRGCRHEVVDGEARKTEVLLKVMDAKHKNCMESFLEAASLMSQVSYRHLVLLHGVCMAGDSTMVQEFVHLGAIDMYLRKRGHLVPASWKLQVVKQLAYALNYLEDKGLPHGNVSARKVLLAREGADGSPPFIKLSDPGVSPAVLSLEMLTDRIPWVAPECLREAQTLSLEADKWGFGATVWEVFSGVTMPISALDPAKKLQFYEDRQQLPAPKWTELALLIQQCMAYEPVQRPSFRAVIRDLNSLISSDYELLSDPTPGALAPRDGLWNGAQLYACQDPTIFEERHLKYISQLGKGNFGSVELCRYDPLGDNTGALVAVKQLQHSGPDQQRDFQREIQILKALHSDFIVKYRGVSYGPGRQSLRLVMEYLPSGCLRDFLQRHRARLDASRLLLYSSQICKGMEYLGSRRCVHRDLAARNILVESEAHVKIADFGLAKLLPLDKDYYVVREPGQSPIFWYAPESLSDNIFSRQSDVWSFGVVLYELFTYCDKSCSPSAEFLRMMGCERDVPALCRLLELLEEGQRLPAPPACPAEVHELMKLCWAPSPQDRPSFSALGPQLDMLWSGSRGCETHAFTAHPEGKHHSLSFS
Procedure: (§1) JAK3 and BTK kinase inhibitory activities were measured for the compounds prepared in the above Examples through in vitro analysis on the ADP Glow (Glo) platform.
(§2) Specifically, the inhibitory activities of JAK3 and BTK kinase were measured using a JAK3 kinase assay kit (Promega, V9441) and a BTK kinase assay kit (Promega, V9071) which were purchased from Promega. Recombinant purified human JAK3 and BTK were diluted with 1 x kinase reaction buffer (JAK3: 40 mM Tris-Cl, pH 7.5, 20 mM MgCh, 0.1 mg/mL BSA and 50 uM DTT / BTK: 40 mM Tris-Cl, pH 7.5, 20 mM MgCl2, 0.1 mg/mL BSA, 2 mM MnCl2 and 50 uM DTT) and added to a 96 well plate (JAK3: final concentration of 4 ng per reaction/BTK: final concentration of 8 ng per reaction). The compounds were treated so as to be finally a 1% DMSO aqueous solution, and a substrate cocktail containing ATP (JAK3: final concentration of 5 uM / BTK: final concentration of 10 uM) and 0.2 µg/µL of Poly(Glu4, Tyr1) peptide (JAK3 and BTK final concentration) in the total 25 µL reactants was added to a 96-well plate to initiate enzymatic reaction. After incubation (30 °C) for 1 hour, equivalent volume (25 µL per reaction) of ADP Glo was added and incubated (30 °C) for 40 minutes at room temperature. Then, a kinase detection reagent (50 µL per reaction) was added and incubated (30 °C) for 30 minutes at room temperature. The kinase activity was measured by chemiluminescence according to the instructions of ADP Glo kinase assay kit, and the inhibitory activity of the compounds according to the present invention was calculated. For the analysis of the results of each compound, Microsoft Excel was used, and IC50 values were calculated by SigmaPlot software.

[2] = biological target: T2, Recombinant purified human BTK (Homo sapiens, UniProt Q06187); assay: BTK kinase inhibitory activity, ADP-Glo kinase assay (Promega V9071); format: biochemical; conditions: ATP 10 uM, 8 ng BTK per reaction, 1 hour 30 °C, chemiluminescence
T2 construct: purchased Promega V9071
T2 sequence (Q06187 whole entry): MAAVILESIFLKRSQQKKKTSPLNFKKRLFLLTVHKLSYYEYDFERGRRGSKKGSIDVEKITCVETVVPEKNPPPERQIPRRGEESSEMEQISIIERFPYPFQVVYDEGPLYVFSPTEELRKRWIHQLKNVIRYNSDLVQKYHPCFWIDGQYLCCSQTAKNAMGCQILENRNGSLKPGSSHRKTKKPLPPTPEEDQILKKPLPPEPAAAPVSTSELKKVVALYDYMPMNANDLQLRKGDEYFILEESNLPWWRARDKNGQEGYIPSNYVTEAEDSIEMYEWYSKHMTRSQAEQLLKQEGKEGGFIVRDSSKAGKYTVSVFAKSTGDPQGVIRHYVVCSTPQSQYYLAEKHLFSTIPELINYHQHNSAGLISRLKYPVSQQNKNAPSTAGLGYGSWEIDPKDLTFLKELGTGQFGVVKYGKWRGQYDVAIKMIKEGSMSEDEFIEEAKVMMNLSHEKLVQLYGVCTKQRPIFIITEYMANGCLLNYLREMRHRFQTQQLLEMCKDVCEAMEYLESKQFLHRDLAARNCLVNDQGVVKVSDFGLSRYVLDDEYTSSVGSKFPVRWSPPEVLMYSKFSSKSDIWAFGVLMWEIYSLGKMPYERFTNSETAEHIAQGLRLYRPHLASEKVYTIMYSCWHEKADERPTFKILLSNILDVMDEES
Procedure: as §1, §2

Compound	IC50 [1] [nM]	IC50 [2] [nM]
CCn1cc(Nc2nc(O[C@@H]3CCCN(C(=O)/C(C#N)=C/C4CC4)C3)c3c(Cl)n[nH]c3n2)cn1 [Example 155, (R,E)-2-(3-((3-chloro-6-((1-ethyl-1H-pyrazol-4-yl)amino)-1H-pyrazolo[3,4-d]pyrimidin-4-yl)oxy)piperidine-1-carbonyl)-3-cyclopropylacrylonitrile]	53.7	2.2
C=CC(=O)N1CC[C@@H](C)[C@@H](Nc2nc(Nc3cnn(CC(F)F)c3)nc3[nH]nc(Cl)c23)C1 [Example 93, 1-((3R,4R)-3-((3-chloro-6-((1-(2,2-difluoroethyl)-1H-pyrazol-4-yl)amino)-1H-pyrazolo [3,4-d]pyrimidin-4-yl)amino)-4-methylpiperidin-1-yl)prop-2-en-1-one]	2	1.3
C=CC(=O)N1CCC[C@@H](Nc2nc(Nc3cnn(CC(F)(F)F)c3)nc3[nH]nc(Cl)c23)C1 [Example 56, (R)-1-(3-(3-chloro-6-(1-(2,2,2-trifluoroethyl)-1H-pyrazol-4-ylamino)-1H-pyrazolo[3,4-d]pyrimidin-4-ylamino)piperidin-1-yl)prop-2-en-1-one]	0.3	1.8
C=CC(=O)N1CCC[C@@H](Nc2nc(Nc3cnn(CC)c3)nc3[nH]cc(Cl)c23)C1 [Example 37, (R)-1-(3-(5-chloro-2-(1-ethyl-1H-pyrazol-4-ylamino)-7H-pyrrolo[2,3-d]pyrimidin-4-ylamino)piperidin-1-yl)prop-2-en-1-one]	0.1	2.5
N#CCC(=O)N1CCC[C@@H](Nc2nc(Nc3cnn(C4CC4)c3)nc3[nH]nc(Cl)c23)C1 [Example 139, (R)-3-(3-((3-chloro-6-((1-cyclopropyl-1H-pyrazol-4-yl)amino)-1H-pyrazolo[3,4-d]pyrimidin-4-yl)amino)piperidin-1-yl)-3-oxopropanenitrile]	> 80	143

Continued, values first:

IC50 [1] [nM]	IC50 [2] [nM]	Compound
0.7	9.5	C=CC(=O)N1CCC[C@@H](Nc2nc(Nc3cnn(Cc4cccc(OC)c4)c3)nc3[nH]ccc23)C1 [Example 20, (R)-1-(3-(2-(1-(3-methoxybenzyl)-1H-pyrazol-4-ylamino)-7H-pyrrolo[2,3-d]pyrimidin-4-ylamino)piperidin-1-yl)prop-2-en-1-one]
6.9	26.7	C=CC(=O)N1CCC[C@@H](Nc2nc(Nc3ccc(N4CCOCC4)cc3)nc3[nH]ccc23)C1 [Example 4, (R)-1-(3-(2-(4-morpholinophenylamino)-7H-pyrrolo[2,3-d]pyrimidin-4-ylamino)piperidin-1-yl)prop-2-en-1-one]
5.5	1.7	C=CC(=O)N1CCC[C@@H](Nc2nc(Nc3cnn(CC(C)C)c3)nc3[nH]ncc23)C1 [Example 65, (R)-1-(3-((6-((1-isobutyl-1H-pyrazol-4-yl)amino)-1H-pyrazolo[3,4-d]pyrimidin-4-yl)amino)piperidin-1-yl)prop-2-en-1-one]
0.5	5.9	C=CC(=O)N1CCC[C@@H](Nc2nc(Nc3cnn(CCN(CC)CC)c3)nc3[nH]cc(Cl)c23)C1 [Example 95, (R)-1-(3-((5-chloro-2-((1-(2-(diethylamino)ethyl)-1H-pyrazol-4-yl)amino)-7H-pyrrolo[2,3-d]pyrimidin-4-yl)amino)piperidin-1-yl)prop-2-en-1-one]
0.9	13.9	C=CC(=O)N1CCC[C@@H](Nc2nc(Nc3cnoc3)nc3[nH]ccc23)C1 [Example 23, (R)-1-(3-(2-(isoxazol-4-ylamino)-7H-pyrrolo[2,3-d]pyrimidin-4-ylamino)piperidin-1-yl)prop-2-en-1-one]
5.4	1.7	C=CC(=O)N1CCC[C@@H](Nc2nc(Nc3cnn(CCOC)c3)nc3[nH]ncc23)C1 [Example 74, (R)-1-(3-((6-((1-(2-methoayethyl)-1H-pyrazol-4-yl)amino)-1H-pyrazolo[3,4-d]pyrimidin-4-yl)amino)piperidin-1-yl)prop-2-en-1-one]
